Patent US11311522B1 (Cavion, Inc., priority 2018, dated 2022)

Test: PN001/Part I: safety and tolerability
Type: in vivo, human
Source text: Safety was monitored throughout by adverse events, vital signs, and repeated clinical and laboratory evaluations. […] All adverse events were mild or moderate and severity and transient.

## CC(C)c1ccc(CC(=O)N[C@H](C)c2ccc(OCC(F)(F)F)cn2)cc1 [CX-8998]
12 mg
  Abnormal physical sensation: 0 n (%)
  At least 1 adverse event: 9 (75.0) n (%)
  Dizziness: 1 (8.3) n (%)
  Drowsiness: 1 (8.3) n (%)
  Elevated mood: 1 (8.3) n (%)
  Euphoric mood: 2 (16.7) n (%)
  Eye Disorders: 1 (8.3) n (%)
  Fatigue: 0 n (%)
  Feeling abnormal: 2 (16.7) n (%)
  Floating feeling: 0 n (%)
  Gastro-intestinal Disorders: 3 (25.0) n (%)
  Hangover effect: 0 n (%)
  Headache: 2 (16.7) n (%)
  Indifference: 0 n (%)
  Injury, Poisoning and Procedural Complications: 0 n (%)
  Insomnia: 0 n (%)
  Intoxication: 0 n (%)
  Irritability: 0 n (%)
  Lethargy: 1 (8.3) n (%)
  Nervous System Disorders: 5 (41.7) n (%)
  Paraesthesia: 0 n (%)
  Paraesthesia oral: 1 (8.3) n (%)
  Paraesthesia tongue: 2 (16.7) n (%)
  Psychiatric Disorders: 4 (33.3) n (%)
  Racing thoughts: 1 (8.3) n (%)
  Relaxed: 4 (33.3) n (%)
  Sensory disturbance: 0 n (%)
  Vision blurred: 0 n (%)
  Visual disturbance: 1 (8.3) n (%)
  Vivid dreams: 0 n (%)
12 mg evening
  Abnormal physical sensation: 0 n (%)
  At least 1 adverse event: 4 (66.7) n (%)
  Dizziness: 0 n (%)
  Drowsiness: 1 (16.7) n (%)
  Elevated mood: 0 n (%)
  Euphoric mood: 0 n (%)
  Eye Disorders: 3 (50.0) n (%)
  Fatigue: 0 n (%)
  Feeling abnormal: 0 n (%)
  Floating feeling: 0 n (%)
  Gastro-intestinal Disorders: 1 (16.7) n (%)
  Hangover effect: 0 n (%)
  Headache: 1 (16.7) n (%)
  Indifference: 0 n (%)
  Injury, Poisoning and Procedural Complications: 0 n (%)
  Insomnia: 0 n (%)
  Intoxication: 0 n (%)
  Irritability: 0 n (%)
  Lethargy: 1 (16.7) n (%)
  Nervous System Disorders: 3 (50.0) n (%)
  Paraesthesia: 0 n (%)
  Paraesthesia oral: 0 n (%)
  Paraesthesia tongue: 1 (16.7) n (%)
  Psychiatric Disorders: 2 n (%)
  Racing thoughts: 0 n (%)
  Relaxed: 0 n (%)
  Sensory disturbance: 0 n (%)
  Vision blurred: 0 n (%)
  Visual disturbance: 3 (50.0) n (%)
  Vivid dreams: 2 n (%)
16 mg evening
  Abnormal physical sensation: 0 n (%)
  At least 1 adverse event: 9 (75.0) n (%)
  Dizziness: 1 (8.3) n (%)
  Drowsiness: 1 (8.3) n (%)
  Elevated mood: 3 (25.0) n (%)
  Euphoric mood: 3 (25.0) n (%)
  Eye Disorders: 1 (8.3) n (%)
  Fatigue: 2 (16.7) n (%)
  Feeling abnormal: 0 n (%)
  Floating feeling: 1 (8.3) n (%)
  Gastro-intestinal Disorders: 1 (8.3) n (%)
  Hangover effect: 2 (16.7) n (%)
  Headache: 4 (33.3) n (%)
  Indifference: 2 (16.7) n (%)
  Injury, Poisoning and Procedural Complications: 0 n (%)
  Insomnia: 0 n (%)
  Intoxication: 0 n (%)
  Irritability: 1 (8.3) n (%)
  Lethargy: 1 (8.3) n (%)
  Nervous System Disorders: 8 (66.7) n (%)
  Paraesthesia: 1 (8.3) n (%)
  Paraesthesia oral: 0 n (%)
  Paraesthesia tongue: 0 n (%)
  Psychiatric Disorders: 8 (66.7) n (%)
  Racing thoughts: 2 (16.7) n (%)
  Relaxed: 2 (16.7) n (%)
  Sensory disturbance: 1 (8.3) n (%)
  Vision blurred: 1 (8.3) n (%)
  Visual disturbance: 0 n (%)
  Vivid dreams: 8 (66.7) n (%)
20 mg evening
  Abnormal physical sensation: 1 (16.7) n (%)
  At least 1 adverse event: 6 (100) n (%)
  Dizziness: 0 n (%)
  Drowsiness: 2 (33.3) n (%)
  Elevated mood: 1 (16.7) n (%)
  Euphoric mood: 3 (50.0) n (%)
  Eye Disorders: 1 (16.7) n (%)
  Fatigue: 0 n (%)
  Feeling abnormal: 0 n (%)
  Floating feeling: 0 n (%)
  Gastro-intestinal Disorders: 0 n (%)
  Hangover effect: 0 n (%)
  Headache: 5 (83.3) n (%)
  Indifference: 0 n (%)
  Injury, Poisoning and Procedural Complications: 2 (33.3) n (%)
  Insomnia: 1 (16.7) n (%)
  Intoxication: 2 (33.3) n (%)
  Irritability: 1 (16.7) n (%)
  Lethargy: 2 (33.3) n (%)
  Nervous System Disorders: 6 (100) n (%)
  Paraesthesia: 1 (16.7) n (%)
  Paraesthesia oral: 0 n (%)
  Paraesthesia tongue: 0 n (%)
  Psychiatric Disorders: 5 (83.3) n (%)
  Racing thoughts: 0 n (%)
  Relaxed: 4 (66.7) n (%)
  Sensory disturbance: 2 (33.3) n (%)
  Vision blurred: 1 (16.7) n (%)
  Visual disturbance: 0 n (%)
  Vivid dreams: 2 (33.3) n (%)
24 mg evening
  Abnormal physical sensation: 0 n (%)
  At least 1 adverse event: 6 (100) n (%)
  Dizziness: 1 (16.7) n (%)
  Drowsiness: 3 (50.0) n (%)
  Elevated mood: 0 n (%)
  Euphoric mood: 1 (16.7) n (%)
  Eye Disorders: 2 (33.3) n (%)
  Fatigue: 0 n (%)
  Feeling abnormal: 1 (16.7) n (%)
  Floating feeling: 1 (16.7) n (%)
  Gastro-intestinal Disorders: 0 n (%)
  Hangover effect: 0 n (%)
  Headache: 6 (100) n (%)
  Indifference: 0 n (%)
  Injury, Poisoning and Procedural Complications: 0 n (%)
  Insomnia: 1 (16.7) n (%)
  Intoxication: 0 n (%)
  Irritability: 0 n (%)
  Lethargy: 1 (16.7) n (%)
  Nervous System Disorders: 6 (100) n (%)
  Paraesthesia: 1 (16.7) n (%)
  Paraesthesia oral: 0 n (%)
  Paraesthesia tongue: 0 n (%)
  Psychiatric Disorders: 4 (66.7) n (%)
  Racing thoughts: 1 (16.7) n (%)
  Relaxed: 0 n (%)
  Sensory disturbance: 0 n (%)
  Vision blurred: 1 (16.7) n (%)
  Visual disturbance: 0 n (%)
  Vivid dreams: 2 (33.3) n (%)
Any dose
  Abnormal physical sensation: 2 (9.1) n (%)
  At least 1 adverse event: 19 (86.4) n (%)
  Dizziness: 2 (9.1) n (%)
  Drowsiness: 7 (31.8) n (%)
  Elevated mood: 6 (27.3) n (%)
  Euphoric mood: 8 (36.4) n (%)
  Eye Disorders: 9 (40.9) n (%)
  Fatigue: 2 (9.1) n (%)
  Feeling abnormal: 4 (18.2) n (%)
  Floating feeling: 2 (9.1) n (%)
  Gastro-intestinal Disorders: 4 (18.2) n (%)
  Hangover effect: 2 (9.1) n (%)
  Headache: 10 (45.5) n (%)
  Indifference: 2 (9.1) n (%)
  Injury, Poisoning and Procedural Complications: 2 (9.1) n (%)
  Insomnia: 2 (9.1) n (%)
  Intoxication: 2 (9.1) n (%)
  Irritability: 2 (9.1) n (%)
  Lethargy: 3 (13.6) n (%)
  Nervous System Disorders: 16 (72.7) n (%)
  Paraesthesia: 2 (9.1) n (%)
  Paraesthesia oral: 2 (9.1) n (%)
  Paraesthesia tongue: 2 (9.1) n (%)
  Psychiatric Disorders: 15 (68.2) n (%)
  Racing thoughts: 4 (18.2) n (%)
  Relaxed: 9 (40.9) n (%)
  Sensory disturbance: 3 (13.6) n (%)
  Vision blurred: 4 (18.2) n (%)
  Visual disturbance: 4 (18.2) n (%)
  Vivid dreams: 11 (50.0) n (%)
Single doses
  Tolerability: Single doses up to 16 mg were generally well tolerated
